From patent US7112677B2, “1H-imidazo dimers” (3M Innovative Properties Company, priority 2002, dated 2006) come the findings set out here.

Molecules are shown by their SMILES.

One data set concerns interferon (α). Kind of data set: Cytokine Induction in Human Cells: interferon (α) by ELISA. The format is cell-based. Particulars: human PBMC, incubated 18 to 24 hours, tested at 30–0.014 μM; induction at ≦10 μM. The text has this: (§1) An in vitro human blood cell system is used to assess cytokine induction. Activity is based on the measurement of interferon and tumor necrosis factor (α) (IFN and TNF, respectively) secreted into culture media as described by Testerman et. al. In “Cytokine Induction by the Immunomodulators Imiquimod and S-27609”, Journal of Leukocyte Biology, 58, 365–372 (September, 1995).
(§2) Whole blood from healthy human donors is collected by venipuncture into EDTA vacutainer tubes. Peripheral blood mononuclear cells (PBMC) are separated from whole blood by density gradient centrifugation using Histopaque®-1077. Blood is diluted 1:1 with Dulbecco's Phosphate Buffered Saline (DPBS) or Hank's Balanced Salts Solution (HBSS). The PBMC layer is collected and washed twice with DPBS or HBSS and resuspended at 4×10^6 cells/mL in RPMI complete. The PBMC suspension is added to 48 well flat bottom sterile tissue culture plates (Costar, Cambridge, Mass. or Becton Dickinson Labware, Lincoln Park, N.J.) containing an equal volume of RPMI complete media containing test compound.
(§3) The compounds are solubilized in dimethyl sulfoxide (DMSO). The DMSO concentration should not exceed a final concentration of 1% for addition to the culture wells. The compounds are generally tested at concentrations ranging from 30–0.014 μM.
(§4) The solution of test compound is added at 60 μM to the first well containing RPMI complete and serial 3 fold dilutions are made in the wells. The PBMC suspension is then added to the wells in an equal volume, bringing the test compound concentrations to the desired range (30–0.014 μM). The final concentration of PBMC suspension is 2×10^6 cells/mL. The plates are covered with sterile plastic lids, mixed gently and then incubated for 18 to 24 hours at 37° C. in a 5% carbon dioxide atmosphere.
(§5) Following incubation the plates are centrifuged for 10 minutes at 1000 rpm (˜200×g) at 4° C. The cell-free culture supernatant is removed with a sterile polypropylene pipet and transferred to sterile polypropylene tubes. Samples are maintained at −30 to −70° C. until analysis. The samples are analyzed for interferon (a) by ELISA and for tumor necrosis factor (α) by ELISA or IGEN Assay.
Interferon (α) concentration is determined by ELISA using a Human Multi-Species kit from PBL Biomedical Laboratories, New Brunswick, N.J. Results are expressed in pg/mL.

Data set [1] deals with tumor necrosis factor (α). Kind of data set: Cytokine Induction in Human Cells: tumor necrosis factor (α) by ELISA or IGEN Assay. Particulars: human PBMC, incubated 18 to 24 hours, tested at 30–0.014 μM; induction at ≦10 μM. The format is cell-based.
Text: as §1, §2, §3, §4, §5
Tumor necrosis factor (α) (TNF-α) concentration is determined using ELISA kits available from Biosource International, Camarillo, Calif. Alternately, the TNF-α concentration can be determined by Origen® M-Series Immunoassay and read on an IGEN M-8 analyzer from IGEN International, Gaithersburg, Md. The immunoassay uses a human TNF-α capture and detection antibody pair from Biosource International, Camarillo, Calif. Results are expressed in pg/mL.
On the technique in general: In an ELISA, binding on a coated surface is turned into a signal by an enzyme label.

The nature of data set [2]: Solubility in DMSO for testing. The format is physicochemical. Set-up: key: *: the compound was not adequately soluble in DMSO to permit testing. As to conditions: printed as * in the cytokine columns. As for the experimental part: as §3
Compounds of the invention were tested for their ability to induce cytokine biosynthesis using the method described above.

In general, melting point refers to the temperature, or range, at which the solid turns liquid. Regarding `CCCCc1nc2c(N)nc3ccccc3c2n1CCCCNC(=O)N[C@H]1CC[C@H](NC(=O)NCCCCn2c(CCCC)nc3c(N)nc4ccccc4c32)CC1` [Example 4, N,N″-trans-1,4-cyclohexylenebis{N′-[4-(4-amino-2-butyl-1H-imidazo[4,5-c]quinolin-1-yl)butyl]urea}], the melting point lay in the range of 184.5 to 188.8 °C. Also, the “Interferon (α)” value with interferon (α) is “+ (at concentrations of ≦10 μM the compound induced the indicated cytokine)”. Also, the “Tumor Necrosis Factor (α)” value in data set [1] is recorded as “+ (at concentrations of ≦10 μM the compound induced the indicated cytokine)”.
For `CCCCc1nc2c(N)nc3ccccc3c2n1CCCCNC(=O)Nc1cccc(NC(=O)NCCCCn2c(CCCC)nc3c(N)nc4ccccc4c32)c1` [Example 2, N,N″-1,3-phenylenebis{N′-[4-(4-amino-2-butyl-1H-imidazo[4,5-c]quinolin-1-yl)butyl]urea}], the melting point is 160.3 to 165.6 °C. In addition, in the data set with interferon (α), the “Interferon (α)” value is “+ (at concentrations of ≦10 μM the compound induced the indicated cytokine)”. Further, the “Tumor Necrosis Factor (α)” value in data set [1] was “+ (at concentrations of ≦10 μM the compound induced the indicated cytokine)”.
Compound `CCCCc1nc2c(N)nc3ccccc3c2n1CCCCNC(=O)NCCCCn1c(CCCC)nc2c(N)nc3ccccc3c21` [Example 1, N,N′-bis[4-(4-amino-2-butyl-1H-imidazo[4,5-c]quinolin-1-yl)butyl]urea] had a melting point of 218.1 to 219.7 °C. Further, the “Interferon (α)” value in the data set with interferon (α) was “+ (at concentrations of ≦10 μM the compound induced the indicated cytokine)”. Further, in data set [1], the “Tumor Necrosis Factor (α)” value was “+ (at concentrations of ≦10 μM the compound induced the indicated cytokine)”.
On to `COCCc1nc2c(N)nc3ccccc3c2n1CCOCCNC(=O)NCCCCCCCCNC(=O)NCCOCCn1c(CCOC)nc2c(N)nc3ccccc3c21` [Example 7, N,N″-1,8-octanediylbis[N′-(2-{2-[4-amino-2-(methoxyethyl)-1H-imidazo[4,5-c]quinolin-1-yl]ethoxy}ethyl)urea]], for which the melting point was 172.5 to 177 °C. In addition, the “Interferon (α)” value in the data set with interferon (α) was “+ (at concentrations of ≦10 μM the compound induced the indicated cytokine)”. For the same compound, the “Tumor Necrosis Factor (α)” value in data set [1] was “+ (at concentrations of ≦10 μM the compound induced the indicated cytokine)”.
Turning to `CCOCc1nc2c(N)nc3ccccc3c2n1CCCCCCCCCCn1c(COCC)nc2c(N)nc3ccccc3c21` [Example 8, 1-[10-(4-amino-2-ethoxymethyl-1H-imidazo[4,5-c]quinolin-1-yl)decyl]-2-ethoxymethyl-1H-imidazo[4,5-c]quinoline-4-amine], the melting point is 237 to 238 °C. Moreover, the “adequately soluble in DMSO to permit testing” value in data set [2] was “*”.
Turning to `COCCc1nc2c(N)nc3ccccc3c2n1CCOCCNS(=O)(=O)c1cccc(S(=O)(=O)NCCOCCn2c(CCOC)nc3c(N)nc4ccccc4c32)c1` [Example 5, N,N-bis(2-{2-[4-amino-2-(2-methoxyethyl)-1H-imidazo[4,5-c]quinolin-1-yl]ethoxy}ethyl)benzene-1,3-disulfonamide], the melting point is 115 to 120 °C. Further, the “Interferon (α)” value with interferon (α) is on record as “+ (at concentrations of ≦10 μM the compound induced the indicated cytokine)”. The “Tumor Necrosis Factor (α)” value in data set [1] is given as “+ (at concentrations of ≦10 μM the compound induced the indicated cytokine)”.
The compound `CCCCc1nc2c(N)nc3ccccc3c2n1CCCCNC(=O)Nc1ccc(Oc2ccc(NC(=O)NCCCCn3c(CCCC)nc4c(N)nc5ccccc5c43)cc2)cc1` [Example 3, N-[4-(4-amino-2-butyl-1H-imidazo[4,5-c]quinolin-1-yl)butyl]-N′-(4-{4-[({[4-(4-amino-2-butyl-1H-imidazo[4,5-c]quinolin-1-yl)butyl]amino}carbonyl)amino]phenoxy}phenyl)urea] registered a melting point of 152.1 to 156.1 °C. For the same compound, the “Interferon (α)” value in the data set on interferon (α) is recorded as “+ (at concentrations of ≦10 μM the compound induced the indicated cytokine)”. Besides, in data set [1], the “Tumor Necrosis Factor (α)” value is listed as “+ (at concentrations of ≦10 μM the compound induced the indicated cytokine)”.
Regarding `COCCc1nc2c(N)nc3ccccc3c2n1CCOCCNC(=O)c1ccc(C(=O)NCCOCCn2c(CCOC)nc3c(N)nc4ccccc4c32)cc1` [Example 6, N,N′-bis(2-{2-[4-amino-2-(2-methoxyethyl)-1H-imidazo[4,5-c]quinolin-1-yl]ethoxy}ethyl)terephthalamide], in the data set on interferon (α), the “Interferon (α)” value is recorded as “+ (at concentrations of ≦10 μM the compound induced the indicated cytokine)”. In data set [1], the “Tumor Necrosis Factor (α)” value was “+ (at concentrations of ≦10 μM the compound induced the indicated cytokine)”.
